Test results from US7781591B2, “Substituted 3-cyanopyridines as protein kinase inhibitors” (Wyeth LLC, priority 2006, dated 2010).

Molecular target: T1, human PKCθ full length enzyme (Homo sapiens, UniProt Q04759)
T1 construct: human PKCθ full length enzyme (Panvera Cat# P2996); purchased Panvera P2996
Test: PKCθ IMAP assay (fluorescence polarization)
Assay type: biochemical
Settings: human PKCθ full length enzyme, IMAP; average value; read-out: IC50 PKCθ IMAP
Procedure: The reaction buffer was prepared by diluting the 5× stock reaction buffer and adding DTT to obtain a concentration of 3.0 mM. […] The final concentration of compound was 2× and 10% DMSO. DMSO was added to the rest of the master mix to increase the concentration to 10%. 10 μl of the master mix containing 10% DMSO was added to the rest of the wells on the plate except the 2nd column. 20 μl was transferred from the first column to the 2nd column. The compounds were serially diluted in 2:1 ratio starting from the 2nd column. A 2× ([…]) PKCθ solution was made in the reaction buffer. 10 μl of the PKCθ solution was added to every well to achieve these final concentrations: PKCθ—1 nM; ATP—6 μM; peptide—100 nM; DMSO—5%. Samples were incubated for 25 minutes at room temperature. The binding reagent was prepared by diluting the beads in 1× binding buffer to 800:1. 50 μl of the binding reagent was added to every well and incubated for 20 minutes. FP was measured using Envision2100 (PerkinElmer Life Sciences). Wells with no ATPs and wells with no enzymes were used as controls.

T1 sequence (Q04759 whole entry): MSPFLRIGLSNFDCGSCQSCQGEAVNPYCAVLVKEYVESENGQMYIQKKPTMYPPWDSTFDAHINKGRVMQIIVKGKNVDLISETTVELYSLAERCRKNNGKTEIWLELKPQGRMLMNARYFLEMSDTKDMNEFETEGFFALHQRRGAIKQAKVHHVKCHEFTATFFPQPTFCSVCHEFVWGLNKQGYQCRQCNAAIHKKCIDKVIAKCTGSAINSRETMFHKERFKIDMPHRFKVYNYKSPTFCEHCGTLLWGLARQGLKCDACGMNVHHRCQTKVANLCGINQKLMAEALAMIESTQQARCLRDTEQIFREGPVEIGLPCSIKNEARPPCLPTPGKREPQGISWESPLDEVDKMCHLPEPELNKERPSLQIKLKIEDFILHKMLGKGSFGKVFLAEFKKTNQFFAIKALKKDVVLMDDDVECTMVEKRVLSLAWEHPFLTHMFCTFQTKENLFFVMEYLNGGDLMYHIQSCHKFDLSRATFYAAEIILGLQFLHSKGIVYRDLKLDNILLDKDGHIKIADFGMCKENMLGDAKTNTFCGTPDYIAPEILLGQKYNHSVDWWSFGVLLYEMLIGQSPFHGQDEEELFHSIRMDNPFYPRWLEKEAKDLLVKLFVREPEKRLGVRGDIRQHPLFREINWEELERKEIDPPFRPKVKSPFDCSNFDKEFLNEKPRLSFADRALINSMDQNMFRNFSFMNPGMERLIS

Row | IC50 | Compound
1 | 1130 nM | COc1ccc(-c2cncc(C#N)c2NC[C@H]2CCC[C@@H](CN)C2)cc1OC (relative stereo) [Compound 443, 4-({[cis-3-(aminomethyl)cyclohexyl]methyl}amino)-5-(3,4-dimethoxyphenyl)nicotinonitrile]
2 | 9320 nM | COc1ccc(-c2cncc(C#N)c2Nc2ccc3c(c2)CCC3)cc1OC [Compound 107, 4-(2,3-dihydro-1H-inden-5-ylamino)-5-(3,4-dimethoxyphenyl)nicotinonitrile]
3 | 65 nM | COc1ccc(-c2cncc(C#N)c2Nc2ccc3[nH]c(C)cc3c2)cc1OC [Compound 110, 5-(3,4-dimethoxyphenyl)-4-[(2-methyl-1H-indol-5-yl)amino]nicotinonitrile]
4 | 580 nM | COc1ccc(-c2cncc(C#N)c2Nc2ccc3c(c2)OCO3)cc1OC [Compound 111, 4-(1,3-benzodioxol-5-ylamino)-5-(3,4-dimethoxyphenyl)nicotinonitrile]
5 | 1130 nM | COc1ccc(-c2cncc(C#N)c2Nc2ccc3ccccc3c2)cc1OC [Compound 112, 5-(3,4-dimethoxyphenyl)-4-(2-naphthylamino)nicotinonitrile]
6 | 50 nM | N#Cc1cncc(-c2cccc(Br)c2)c1Nc1ccc2[nH]ccc2c1 [Compound 113, 5-(3-bromophenyl)-4-(1H-indol-5-ylamino)nicotinonitrile]
7 | 2 nM | N#Cc1cncc(-c2cccc(Br)c2)c1Nc1cccc2[nH]ccc12 [Compound 114, 5-(3-bromophenyl)-4-(1H-indol-4-ylamino)nicotinonitrile]
8 | 310 nM | N#Cc1cncc(-c2ccccc2Br)c1Nc1ccc2[nH]ccc2c1 [Compound 115, 5-(2-bromophenyl)-4-(1H-indol-5-ylamino)nicotinonitrile]
9 | 70 nM | N#Cc1cncc(-c2ccc(Br)cc2)c1Nc1ccc2[nH]ccc2c1 [Compound 116, 5-(4-bromophenyl)-4-(1H-indol-5-ylamino)nicotinonitrile]
10 | 300 nM | N#Cc1cncc(-c2cccc(-c3ccc(N)cc3)c2)c1Nc1ccc2[nH]ccc2c1 [Compound 119, 5-(4′-aminobiphenyl-3-yl)-4-(1H-indol-5-ylamino)nicotinonitrile]
11 | 180 nM | N#Cc1cncc(-c2cccc(-c3ccc(C(=O)NC4CCCC4)cc3)c2)c1Nc1ccc2[nH]ccc2c1 [Compound 123, 3′-[5-cyano-4-(1H-indol-5-ylamino)pyridin-3-yl]-N-cyclopentylbiphenyl-4-carboxamide]
12 | 1100 nM | N#Cc1cncc(-c2cccc(-c3cc[nH]c3)c2)c1Nc1ccc2[nH]ccc2c1 [Compound 124, 4-(1H-indol-5-ylamino)-5-[3-(1H-pyrrol-3-yl)phenyl]nicotinonitrile]
13 | 130 nM | Cc1ccc(-c2cccc(-c3cncc(C#N)c3Nc3ccc4[nH]ccc4c3)c2)cc1 [Compound 128, 4-(1H-indol-5-ylamino)-5-(4′-methylbiphenyl-3-yl)nicotinonitrile]
14 | 110 nM | N#Cc1cccc(-c2cccc(-c3cncc(C#N)c3Nc3ccc4[nH]ccc4c3)c2)c1 [Compound 132, 5-(3′-cyanobiphenyl-3-yl)-4-(1H-indol-5-ylamino)nicotinonitrile]
15 | 130 nM | N#Cc1cncc(-c2cccc(-c3cccs3)c2)c1Nc1ccc2[nH]ccc2c1 [Compound 136, 4-(1H-indol-5-ylamino)-5-[3-(2-thienyl)phenyl]nicotinonitrile]
16 | 250 nM | Cc1csc(-c2cccc(-c3cncc(C#N)c3Nc3ccc4[nH]ccc4c3)c2)c1 [Compound 139, 4-(1H-indol-5-ylamino)-5-[3-(4-methyl-2-thienyl)phenyl]nicotinonitrile]
17 | 110 nM | CC(=O)c1ccc(-c2cccc(-c3cncc(C#N)c3Nc3ccc4[nH]ccc4c3)c2)s1 [Compound 140, 5-[3-(5-acetyl-2-thienyl)phenyl]-4-(1H-indol-5-ylamino)nicotinonitrile]

Row | IC50 | Compound
18 | 120 nM | N#Cc1cncc(-c2cccc(-c3ccoc3)c2)c1Nc1ccc2[nH]ccc2c1 [Compound 142, 5-[3-(3-furyl)phenyl]-4-(1H-indol-5-ylamino)nicotinonitrile]
19 | 20 nM | N#Cc1cncc(-c2cccc(-c3cccs3)c2)c1Nc1cccc2[nH]ccc12 [Compound 147, 4-(1H-indol-4-ylamino)-5-[3-(2-thienyl)phenyl]nicotinonitrile]
20 | 40 nM | N#Cc1cncc(-c2cccc(-c3ccc(C(=O)NC4CCCC4)cc3)c2)c1Nc1cccc2[nH]ccc12 [Compound 148, 3′-[5-cyano-4-(1H-indol-4-ylamino)pyridin-3-yl]-N-cyclopentylbiphenyl-4-carboxamide]
21 | 70 nM | N#Cc1cncc(-c2cccc(-c3ccc(C(=O)N4CCCC4)cc3)c2)c1Nc1cccc2[nH]ccc12 [Compound 149, 4-(1H-indol-4-ylamino)-5-[4′-(pyrrolidin-1-ylcarbonyl)biphenyl-3-yl]nicotinonitrile]
22 | 120 nM | N#Cc1cncc(-c2cccc(-c3ccc(C=O)s3)c2)c1Nc1ccc2[nH]ccc2c1 [Compound 150, 5-[3-(5-formyl-2-thienyl)phenyl]-4-(1H-indol-5-ylamino)nicotinonitrile]
23 | 30 nM | COCCOc1cccc(-c2cncc(C#N)c2Nc2cccc3[nH]ccc23)c1 [Compound 164, 4-(1H-indol-4-ylamino)-5-[3-(2-methoxyethoxy)phenyl]nicotinonitrile]
24 | 20 nM | CN1CCN(CCOc2cccc(-c3cncc(C#N)c3Nc3cccc4[nH]ccc34)c2)CC1 [Compound 168, 4-(1H-indol-4-ylamino)-5-{3-[2-(4-methylpiperazin-1-yl)ethoxy]phenyl}nicotinonitrile]
25 | 50 nM | N#Cc1cncc(-c2cccc(OCCN3CCCCC3)c2)c1Nc1cccc2[nH]ccc12 [Compound 171, 4-(1H-indol-4-ylamino)-5-[3-(2-piperidin-1-ylethoxy)phenyl]nicotinonitrile]
26 | 30 nM | N#Cc1cncc(-c2cccc(OCCNCCO)c2)c1Nc1ccc2[nH]ccc2c1 [Compound 176, 5-(3-{2-[(2-hydroxyethyl)amino]ethoxy}phenyl)-4-(1H-indol-5-ylamino)nicotinonitrile]
27 | 20 nM | N#Cc1cncc(-c2cccc(OCCNCCN3CCCC3)c2)c1Nc1ccc2[nH]ccc2c1 [Compound 177, 4-(1H-indol-5-ylamino)-5-(3-{2-[(2-pyrrolidin-1-ylethyl)amino]ethoxy}phenyl)nicotinonitrile]
28 | 110 nM | COc1ccc(-c2cncc(C#N)c2Nc2ccc3[nH]ccc3c2)cc1OCCCl [Compound 178, 5-[3-(2-chloroethoxy)-4-methoxyphenyl]-4-(1H-indol-5-ylamino)nicotinonitrile]
29 | 410 nM | CCN(CC)CCOc1cc(-c2cncc(C#N)c2Nc2ccc3[nH]ccc3c2)ccc1OC [Compound 179, 5-{3-[2-(diethylamino)ethoxy]-4-methoxyphenyl}-4-(1H-indol-5-ylamino)nicotinonitrile]
30 | 690 nM | COc1ccc(-c2cncc(C#N)c2Nc2ccc3[nH]ccc3c2)cc1OCCN(C(C)C)C(C)C [Compound 180, 5-{3-[2-(diisopropylamino)ethoxy]-4-methoxyphenyl}-4-(1H-indol-5-ylamino)nicotinonitrile]
31 | 39 nM | COc1ccc(-c2cncc(C#N)c2Nc2ccc3[nH]ccc3c2)cc1OCCNCc1ccccc1 [Compound 181, 5-{3-[2-(benzylamino)ethoxy]-4-methoxyphenyl}-4-(1H-indol-5-ylamino)nicotinonitrile]
32 | 120 nM | COCCNCCOc1cc(-c2cncc(C#N)c2Nc2ccc3[nH]ccc3c2)ccc1OC [Compound 182, 4-(1H-indol-5-ylamino)-5-(4-methoxy-3-{2-[(2-methoxyethyl)amino]ethoxy}phenyl)nicotinonitrile]
33 | 70 nM | COc1ccc(-c2cncc(C#N)c2Nc2ccc3[nH]ccc3c2)cc1OCCNc1nnc(C)s1 [Compound 183, 4-(1H-indol-5-ylamino)-5-(4-methoxy-3-{2-[(5-methyl-1,3,4-thiadiazol-2-yl)amino]ethoxy}phenyl)nicotinonitrile]

Row | Compound | IC50
34 | 4-(1H-indol-4-ylamino)-5-(4-methoxy-3-{2-[(3-pyrrolidin-1-ylpropyl)amino]ethoxy}phenyl)nicotinonitrile [Compound 340] | 8 nM
35 | 4-(1H-indol-4-ylamino)-5-(4-{2-[(3-phenylpropyl)amino]ethoxy}phenyl)nicotinonitrile [Compound 347] | 4 nM
36 | 4-(1H-indol-4-ylamino)-5-[4-methoxy-3-(2-{[2-(1-methylpyrrolidin-2-yl)ethyl]amino}ethoxy)phenyl]nicotinonitrile [Compound 341] | 3 nM
37 | 4-[(4-methyl-1H-indol-5-yl)amino]-5-(5-{[(3-phenylpropyl)amino]methyl}-2-furyl)nicotinonitrile [Compound 409] | 27 nM
38 | 4-[(4-methyl-1H-indol-5-yl)amino]-5-[5-(pyrrolidin-1-ylmethyl)-2-furyl]nicotinonitrile [Compound 410] | 35 nM
39 | 4-[(4-methyl-1H-indol-5-yl)amino]-5-[5-(thiomorpholin-4-ylmethyl)-2-furyl]nicotinonitrile [Compound 411] | 8 nM
40 | 5-(1-benzofuran-3-yl)-4-(1H-indol-4-ylamino)nicotinonitrile [Compound 352] | 20 nM
41 | 5-(2,4-dimethoxyphenyl)-4-(1H-indol-4-ylamino)nicotinonitrile [Compound 337] | 100 nM
42 | 5-{5-[(cyclohexylamino)methyl]-1-benzofuran-2-yl}-4-[(4-methyl-1H-indol-5-yl)amino]nicotinonitrile [Compound 387] | 1 nM
